Measurements: PubChem BioAssay AID1794801 (Yongcheng Song lab at Baylor College of Medicine, 2022)
The source made the active and inactive calls.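 How the source made its calls: active means compounds that disrupt AF9 binding to the DOT1L peptide with an IC50 under 30 µM; inactive means the rest.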

Molecular target: Protein AF-9 (Homo sapiens) (UniProt P42568)
Test: inhibitors of AF9 AHD–DOT1L interaction, dose response, biochemical, AlphaLISA, MBP-tagged AHD, biotinylated peptide (AID 1794801)
Conditions: MBP-AF9 AHD and biotin-DOT1L peptide

Chain of Protein AF-9 (Homo sapiens) (P42568 whole entry, looked up): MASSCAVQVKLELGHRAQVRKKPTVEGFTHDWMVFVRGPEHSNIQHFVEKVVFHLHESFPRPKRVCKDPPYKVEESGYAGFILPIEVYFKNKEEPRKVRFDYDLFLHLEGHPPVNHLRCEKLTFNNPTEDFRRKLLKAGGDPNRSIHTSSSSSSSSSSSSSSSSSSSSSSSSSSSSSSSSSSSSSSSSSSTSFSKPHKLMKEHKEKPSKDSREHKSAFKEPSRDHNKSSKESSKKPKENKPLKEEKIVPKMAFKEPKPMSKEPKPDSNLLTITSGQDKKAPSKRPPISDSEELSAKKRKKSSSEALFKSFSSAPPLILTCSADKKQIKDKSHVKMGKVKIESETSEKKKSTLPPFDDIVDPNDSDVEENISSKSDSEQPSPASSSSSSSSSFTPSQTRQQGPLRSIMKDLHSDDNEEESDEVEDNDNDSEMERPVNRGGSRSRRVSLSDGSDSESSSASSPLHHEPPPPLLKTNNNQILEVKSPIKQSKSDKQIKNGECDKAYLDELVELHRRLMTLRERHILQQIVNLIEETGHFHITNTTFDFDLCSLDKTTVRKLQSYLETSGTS

In order of rising IC50:
1. O=C(NCC1CCNCC1)c1cc2ccc(-c3ccc(N4CCCCC4)cc3)cc2s1  1.6 µM
2. O=C(NCC1CCNCC1)c1cc2ccc(Nc3ccc(N4CCCCC4)cc3)cc2s1  2.3 µM
3. O=C(NCC1CCNCC1)c1cc2cc(-c3ccc(N4CCCCC4)cc3)ccc2s1  2.5 µM
4. O=C(NCC1CCNCC1)c1cc2cc(-c3ccc(N4CCCC4)cc3)ccc2[nH]1  2.7 µM
5. O=C(NCC1CCNCC1)c1cc2ccc(-c3ccc(N4CCCC4)cc3)cc2[nH]1  2.8 µM
6. O=C(NCC1CCNCC1)c1c[nH]c2cc(-c3ccc(N4CCCC4)cc3)ccc12  2.9 µM
7. O=C(NCC1CCNCC1)c1cc2ccc(-c3ccc(N4CCCCC4)cc3)cc2[nH]1  3.3 µM
8. O=C(NCC1CCNCC1)c1cc2cc(-c3ccc(N4CCCCC4)cc3)ccc2[nH]1  3.6 µM
9. O=C(NCC1CCNCC1)c1c[nH]c2cc(-c3ccc(N4CCCCC4)cc3)ccc12  4.5 µM
10. O=C(NCC1CCNCC1)c1cc2ccc(Nc3ccc(N4CCCCC4)cc3)cc2o1  4.6 µM
11. O=C(NCC1CCNCC1)c1cc2ccc(-c3ccc(N4CCCC4)cc3)cc2s1  5.3 µM

NCc1ccc(-c2ccc3cc(C(=O)NCC4CCNCC4)oc3c2)cc1 was tested, and the IC50 was > 30 µM (inactive).
With O=C(NCC1CCNCC1)c1cc2cc(-c3cn[nH]c3)ccc2[nH]1 the IC50 was > 30 µM (inactive).
